# Source: patent US8022206B2 (OSI Pharmaceuticals, LLC, priority 2008, dated 2011)
# Columns and labels:
# RON (human) = RON (human) (Homo sapiens, UniProt Q04912); assay: RON (human) AlphaScreen kinase assay, Km of ATP; assay type: biochemical; conditions: AlphaScreen, Km of ATP; read-out: RON biochemical IC50
# Summary of the method: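 Detection used PT66 AlphaScreen beads added in Tris pH 7.5/NaCl/EDTA/BSA buffer, read after 1 h incubation. Vehicle-only DMSO wells served as controls.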
# MET (human) = MET (human) (Homo sapiens, UniProt P08581); assay: MET (human) AlphaScreen kinase assay, Km of ATP; assay type: biochemical; conditions: AlphaScreen, Km of ATP; read-out: Met biochemical IC50
# Summary of the method: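 Human MET at lot-optimised concentration in 50 mM Tris pH 7.4 buffer with 1 mM DTT, compound at 1% DMSO final; enzyme starts the reaction, 60 min at RT.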
# MET (human), sequence (P08581 25-1390): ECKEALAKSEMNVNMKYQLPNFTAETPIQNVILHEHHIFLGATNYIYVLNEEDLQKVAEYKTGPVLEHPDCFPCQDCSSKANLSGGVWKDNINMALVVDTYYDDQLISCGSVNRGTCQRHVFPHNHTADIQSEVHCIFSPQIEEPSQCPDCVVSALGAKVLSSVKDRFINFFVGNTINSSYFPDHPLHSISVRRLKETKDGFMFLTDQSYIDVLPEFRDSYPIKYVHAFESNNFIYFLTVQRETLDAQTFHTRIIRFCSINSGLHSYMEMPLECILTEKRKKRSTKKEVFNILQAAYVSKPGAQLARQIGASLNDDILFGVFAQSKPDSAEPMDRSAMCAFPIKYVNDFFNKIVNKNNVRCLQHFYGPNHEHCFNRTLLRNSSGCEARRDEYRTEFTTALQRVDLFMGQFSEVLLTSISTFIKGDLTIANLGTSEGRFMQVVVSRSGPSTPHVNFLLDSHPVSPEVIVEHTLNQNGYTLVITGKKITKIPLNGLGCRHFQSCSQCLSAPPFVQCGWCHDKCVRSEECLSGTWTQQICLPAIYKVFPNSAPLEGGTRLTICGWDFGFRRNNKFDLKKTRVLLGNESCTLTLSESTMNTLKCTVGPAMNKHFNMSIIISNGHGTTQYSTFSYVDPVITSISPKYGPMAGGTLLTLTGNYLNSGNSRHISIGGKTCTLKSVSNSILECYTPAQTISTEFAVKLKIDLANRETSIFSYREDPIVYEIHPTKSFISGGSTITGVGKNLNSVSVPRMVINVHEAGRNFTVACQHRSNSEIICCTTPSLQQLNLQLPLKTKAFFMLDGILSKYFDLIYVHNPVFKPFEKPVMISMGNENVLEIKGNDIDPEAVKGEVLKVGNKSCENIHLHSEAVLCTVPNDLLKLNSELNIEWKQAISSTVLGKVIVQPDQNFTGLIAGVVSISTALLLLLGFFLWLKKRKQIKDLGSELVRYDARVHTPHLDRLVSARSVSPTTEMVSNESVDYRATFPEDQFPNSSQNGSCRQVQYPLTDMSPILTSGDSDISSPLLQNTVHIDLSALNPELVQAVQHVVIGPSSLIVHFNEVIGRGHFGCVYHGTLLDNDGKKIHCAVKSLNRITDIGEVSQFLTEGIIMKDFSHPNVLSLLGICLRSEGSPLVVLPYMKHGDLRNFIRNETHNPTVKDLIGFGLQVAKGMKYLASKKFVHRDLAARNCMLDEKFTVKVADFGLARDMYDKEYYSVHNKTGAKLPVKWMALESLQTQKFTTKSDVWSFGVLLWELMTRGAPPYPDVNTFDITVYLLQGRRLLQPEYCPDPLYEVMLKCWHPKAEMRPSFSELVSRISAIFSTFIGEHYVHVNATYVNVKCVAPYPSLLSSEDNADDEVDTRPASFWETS
# RON (human), sequence (Q04912 25-1400): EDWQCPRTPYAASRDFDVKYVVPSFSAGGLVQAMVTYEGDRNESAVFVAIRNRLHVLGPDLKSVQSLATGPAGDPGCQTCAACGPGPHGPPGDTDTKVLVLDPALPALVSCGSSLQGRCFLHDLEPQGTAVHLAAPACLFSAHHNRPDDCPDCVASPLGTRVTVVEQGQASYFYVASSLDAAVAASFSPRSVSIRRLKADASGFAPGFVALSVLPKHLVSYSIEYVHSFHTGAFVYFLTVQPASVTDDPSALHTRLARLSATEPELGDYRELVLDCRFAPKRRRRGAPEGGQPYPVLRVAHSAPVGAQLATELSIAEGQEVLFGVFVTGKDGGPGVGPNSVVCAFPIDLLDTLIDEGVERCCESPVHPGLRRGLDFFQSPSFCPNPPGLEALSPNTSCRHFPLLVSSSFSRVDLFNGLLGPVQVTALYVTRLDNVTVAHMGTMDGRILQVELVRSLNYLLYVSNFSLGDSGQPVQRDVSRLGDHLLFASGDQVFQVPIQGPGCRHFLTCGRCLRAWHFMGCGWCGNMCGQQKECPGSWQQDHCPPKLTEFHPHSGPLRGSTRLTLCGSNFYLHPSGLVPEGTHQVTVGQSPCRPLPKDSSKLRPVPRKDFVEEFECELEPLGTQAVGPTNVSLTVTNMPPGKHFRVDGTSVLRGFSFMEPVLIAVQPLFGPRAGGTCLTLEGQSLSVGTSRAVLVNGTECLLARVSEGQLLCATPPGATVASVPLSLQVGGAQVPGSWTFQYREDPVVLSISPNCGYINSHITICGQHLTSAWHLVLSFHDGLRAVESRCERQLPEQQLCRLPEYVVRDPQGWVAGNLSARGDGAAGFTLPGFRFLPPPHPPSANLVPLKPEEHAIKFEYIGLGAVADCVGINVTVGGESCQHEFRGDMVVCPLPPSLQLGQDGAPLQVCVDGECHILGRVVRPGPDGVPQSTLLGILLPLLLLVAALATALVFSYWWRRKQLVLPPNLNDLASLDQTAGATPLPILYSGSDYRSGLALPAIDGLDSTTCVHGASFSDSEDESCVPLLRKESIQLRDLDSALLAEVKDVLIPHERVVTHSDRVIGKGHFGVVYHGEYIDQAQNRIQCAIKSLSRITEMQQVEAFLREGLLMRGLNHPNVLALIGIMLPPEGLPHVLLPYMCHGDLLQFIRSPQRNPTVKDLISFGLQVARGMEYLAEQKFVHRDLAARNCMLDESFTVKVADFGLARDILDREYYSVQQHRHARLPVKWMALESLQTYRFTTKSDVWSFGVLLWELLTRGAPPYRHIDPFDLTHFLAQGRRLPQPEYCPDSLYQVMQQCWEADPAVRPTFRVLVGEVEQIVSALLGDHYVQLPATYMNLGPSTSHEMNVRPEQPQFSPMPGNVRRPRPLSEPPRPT
SMILES,IC50 (RON (human)),IC50 (MET (human))
"CC(Oc1c(N)ncc2c(-c3cnn(C4CCNCC4)c3)coc12)c1c(Cl)c(F)cc(OCCCN(C)C)c1Cl (centres unmarked) [Example 156, 7-(1-{2,6-Dichloro-3-[3-(dimethylamino)propoxy]-5-fluorophenyl}ethoxy)-3-[1-(piperidin-4-yl)-1H-pyrazol-4-yl]furo[3,2-c]pyridin-6-amine]",< 500 nM,< 500 nM
"C[C@@H](Oc1c(N)ncc2c(-c3ccc(NC(N)=O)cc3)coc12)c1c(Cl)ccc(F)c1Cl [Example 108, (4-{6-Amino-7-[(R)-1-(2,6-dichloro-3-fluorophenyl)ethoxy]furo[3,2-c]pyridin-3-yl}phenyl)urea]",500 to 5000 nM,500 to 5000 nM
"CC(Oc1c(N)ncc2c(-c3cnn(C4CCNCC4)c3)coc12)c1ccccc1C(F)(F)F (centres unmarked) [Example 346, 3-(1-Piperidin-4-yl-1H-pyrazol-4-yl)-7-[1-(2-trifluoromethyl-phenyl)ethoxy]furo[3,2-c]pyridin-6-ylamine]",500 to 5000 nM,500 to 5000 nM
"CCCS(=O)(=O)Nc1cccc(-c2coc3c(O[C@H](C)c4c(Cl)ccc(F)c4Cl)c(N)ncc23)c1 [Example 244, Propane-1-sulfonic acid (3-{6-amino-7-[(R)-1-(2,6-dichloro-3-fluorophenyl)ethoxy]-furo[3,2-c]pyridin-3-yl}phenyl)amide]",500 to 5000 nM,500 to 5000 nM
"C[C@@H](Oc1c(N)ncc2c(-c3ccc(C(=O)N4CCN(CCO)CC4)cc3)coc12)c1c(Cl)ccc(F)c1Cl [Example 99, (4-{6-Amino-7-[(R)-1-(2,6-dichloro-3-fluorophenyl)ethoxy]-furo[3,2-c]pyridin-3-yl}phenyl)-[4-(2-hydroxyethyl)piperazin-1-yl]methanone]",< 500 nM,< 500 nM
"CNC(=O)c1ccc(C(C)Oc2c(N)ncc3c(-c4cnn(C5CCNCC5)c4)coc23)cc1 (centres unmarked) [Example 421, 4-{1-[6-Amino-3-(1-piperidin-4-yl-1H-pyrazol-4-yl)furo[3,2-c]pyridin-7-yloxy]ethyl}-N-methylbenzamide]",5000 to 20000 nM,500 to 5000 nM
"C[C@@H](Oc1c(N)ncc2c(-c3cscn3)coc12)c1c(Cl)ccc(F)c1Cl [Example 136, 7-[(R)-1-(2,6-Dichloro-3-fluorophenyl)-ethoxy]-3-thiazol-4-ylfuro[3,2-c]pyridin-6-ylamine]",500 to 5000 nM,500 to 5000 nM
"C[C@@H](Oc1c(N)ncc2c(-c3ccc4cc[nH]c4c3)coc12)c1c(Cl)ccc(F)c1Cl [Example 129, 7-[(R)-(2,6-Dichloro-3-fluorophenyl)ethoxy]-3-(1H-indol-6-yl)furo[3,2-c]pyridin-6-ylamine]",500 to 5000 nM,500 to 5000 nM
"C[C@@H](Oc1c(N)ncc2c(-c3cnn(C4CCNCC4)c3)coc12)c1ccccn1 [Example 399, 3-(1-Piperidin-4-yl-1H-pyrazol-4-yl)-7-((R)-1-pyridin-2-yl-ethoxy)furo[3,2-c]pyridin-6-ylamine]",500 to 5000 nM,500 to 5000 nM
"C[C@@H](Oc1c(N)ncc2c(-c3cccc(C(=O)N4CCN(CCO)CC4)c3)coc12)c1c(Cl)ccc(F)c1Cl [Example 98, (3-{6-Amino-7-[(R)-1-(2,6-dichloro-3-fluorophenyl)ethoxy]-furo[3,2-c]pyridin-3-yl}phenyl)-[4-(2-hydroxyethyl)piperazin-1-yl]methanone]",500 to 5000 nM,< 500 nM
"C[C@@H](Oc1c(N)ncc2c(-c3ccn4ccnc4c3)coc12)c1c(Cl)ccc(F)c1Cl [Example 82, 7-[(R)-1-(2,6-Dichloro-3-fluorophenyl)ethoxy]-3-imidazo[1,2-a]pyridin-7-ylfuro[3,2-c]pyridin-6-ylamine]",500 to 5000 nM,< 500 nM
"C[C@@H](Oc1c(N)ncc2c(-c3ccc(N)nc3)coc12)c1c(Cl)ccc(F)c1Cl [Example 131, 3-(6-Amino-pyridin-3-yl)-7-[(R)-(2,6-dichloro-3-fluorophenyl)ethoxy]furo[3,2-c]pyridin-6-ylamine]",500 to 5000 nM,< 500 nM
"CC(Oc1c(N)ncc2c(-c3cnn(C4CCNCC4)c3)coc12)c1ccc(Cl)cc1 (centres unmarked) [Example 377, 7-[1-(4-Chlorophenyl)ethoxy]-3-(1-piperidin-4-yl-1H-pyrazol-4-yl)furo[3,2-c]pyridin-6-ylamine]",500 to 5000 nM,500 to 5000 nM
"C[C@@H](Oc1c(N)ncc2c(-c3cnn(C4CCN(C=O)CC4)c3)coc12)c1c(Cl)ccc(F)c1Cl [Example 277, 4-(4-{6-Amino-7-[(1R)-1-(2,6-dichloro-3-fluorophenyl)ethoxy]furo[3,2-c]pyridin-3-yl}-1H-pyrazol-1-yl)piperidine-1-carbaldehyde]",500 to 5000 nM,500 to 5000 nM
"Cn1cc(-c2ccc3nnc(COc4c(N)ncc5ccoc45)n3n2)cn1 [Example 472, 7-{[6-(1-methyl-1H-pyrazol-4-yl) [1,2,4]triazolo[4,3-b]pyridazin-3-yl]methoxy}furo[3,2-c]pyridin-6-amine]",5000 to 20000 nM,500 to 5000 nM
"C[C@@H](Oc1c(N)ncc2c(-c3cccc(NS(C)(=O)=O)c3)coc12)c1c(Cl)ccc(F)c1Cl [Example 79, N-(3-{6-Amino-7-[(R)-1-(2,6-dichloro-3-fluorophenyl)ethoxy]-furo[3,2-c]pyridin-3-yl}phenyl)methanesulfonamide]",500 to 5000 nM,< 500 nM
"COc1ncc(-c2coc3c(O[C@H](C)c4c(Cl)ccc(F)c4Cl)c(N)ncc23)cn1 [Example 93, 7-[(R)-1-(2,6-Dichloro-3-fluorophenyl)ethoxy]-3-(2-methoxypyrimidin-5-yl)furo[3,2-c]pyridin-6-ylamine]",5000 to 20000 nM,500 to 5000 nM

# More lines, now with the values ahead:
IC50 (RON (human)),IC50 (MET (human)),SMILES
< 500 nM,< 500 nM,"C[C@@H]1CN(C(=O)N2CC=C(c3coc4c(O[C@H](C)c5c(Cl)ccc(F)c5Cl)c(N)ncc34)CC2)C[C@H](C)N1 (relative stereo) [Example 224, (4-{6-Amino-7-[(R)-1-(2,6-dichloro-3-fluorophenyl)ethoxy]-furo[3,2-c]pyridin-3-yl}-3,6-dihydro-2H-pyridin-1-yl)-((3R*,5S*)-3,5-dimethylpiperazin-1-yl)methanone]"
< 500 nM,< 500 nM,"C[C@@H](Oc1c(N)ncc2c(C3=CCN(C(=O)CN)CC3)coc12)c1c(Cl)ccc(F)c1Cl [Example 253, 2-Amino-1-[4-{6-amino-7-[(1R)-1-(2,6-dichloro-3-fluorophenyl)ethoxy]furo[3,2-c]pyridin-3-yl}-3,6-dihydropyridin-1(2H)-yl]ethanone]"
500 to 5000 nM,500 to 5000 nM,"Cc1csc(-c2coc3c(O[C@H](C)c4c(Cl)ccc(F)c4Cl)c(N)ncc23)c1 [Example 115, 7-[(R)-1-(2,6-Dichloro-3-fluorophenyl)ethoxy]-3-(4-methylthiophen-2-yl)furo[3,2-c]pyridin-6-ylamine]"
500 to 5000 nM,< 500 nM,"C[C@@H](Oc1c(N)ncc2c(-c3cccc(C(=O)N4CCN(C)CC4)c3)coc12)c1c(Cl)ccc(F)c1Cl [Example 94, (3-{6-Amino-7-[(R)-1-(2,6-dichloro-3-fluorophenyl)ethoxy]furo[3,2-c]pyridin-3-yl}phenyl)(4-methylpiperazin-1-yl)methanone]"
500 to 5000 nM,< 500 nM,"C[C@@H](Oc1c(N)ncc2c(-c3ccc(C(=O)N4CCN(C)CC4)cc3)coc12)c1c(Cl)ccc(F)c1Cl [Example 75, (4-{6-Amino-7-[(R)-1-(2,6-dichloro-3-fluorophenyl)ethoxy]-furo[3,2-c]pyridin-3-yl}phenyl)-(4-methylpiperazin-1-yl)methanone]"
< 500 nM,< 500 nM,"C[C@@H](Oc1c(N)ncc2c(C3=CCN(C(=O)CN4CCCC4)CC3)coc12)c1c(Cl)ccc(F)c1Cl [Example 13, 1-(4-{6-Amino-7-[(R)-1-(2,6-dichloro-3-fluorophenyl)-ethoxy]-furo[3,2-c]pyridin-3-yl}-3,6-dihydro-2H-pyridin-1-yl)-2-pyrrolidin-1-ylethanone]"
< 500 nM,< 500 nM,"C[C@@H](Oc1c(N)ncc2c(-c3ccc(C(=O)N4CCNCC4)cc3)coc12)c1c(Cl)ccc(F)c1Cl [Example 106, (4-{6-Amino-7-[(R)-1-(2,6-dichloro-3-fluorophenyl)ethoxy]furo[3,2-c]pyridin-3-yl}phenyl)piperazin-1-ylmethanone]"
< 500 nM,< 500 nM,"C[C@@H](Oc1c(N)ncc2c(C3=CCN(C=O)CC3)coc12)c1c(Cl)ccc(F)c1Cl [Example 10, 4-{6-Amino-7-[(R)-1-(2,6-dichloro-3-fluorophenyl)-ethoxy]-furo[3,2-c]pyridin-3-yl}-3,6-dihydro-2H-pyridine-1-carbaldehyde]"
< 500 nM,< 500 nM,"C[C@@H](Oc1c(N)ncc2c(C3=CCN(C(=O)CCCN(C)C)CC3)coc12)c1c(Cl)ccc(F)c1Cl [Example 20, 1-(4-{6-Amino-7-[(R)-1-(2,6-dichloro-3-fluorophenyl)-ethoxy]-furo[3,2-c]pyridin-3-yl}-3,6-dihydro-2H-pyridin-1-yl)-4-dimethylaminobutan-1-one]"
500 to 5000 nM,< 500 nM,"C[C@@H](Oc1c(N)ncc2c(-c3ccc(CN(C)C)cc3)coc12)c1c(Cl)ccc(F)c1Cl [Example 105, 7-[(R)-1-(2,6-Dichloro-3-fluorophenyl)ethoxy]-3-(4-dimethylaminomethylphenyl)-furo[3,2-c]pyridin-6-ylamine]"
500 to 5000 nM,< 500 nM,"C[C@H](O)C(=O)N1CC=C(c2coc3c(O[C@H](C)c4c(Cl)ccc(F)c4Cl)c(N)ncc23)CC1 [Example 227, (S)-1-(4-{6-Amino-7-[(R)-1-(2,6-dichloro-3-fluorophenyl)ethoxy]-furo[3,2-c]pyridin-3-yl}-3,6-dihydro-2H-pyridin-1-yl)-2-hydroxypropan-1-one]"
